Results taken from patent EP0540859B1, “Anthracycline prodrugs” (Bristol-Myers Squibb Company, priority 1987, dated 1989).
pIC50: −log10 of the molar value.

Legend:
Daudi cells = experiment: 3H-thymidine assay on Daudi cells, PVA conjugates with APO; assay type: cell-based; conditions: Figure 25
Protocol: The ^3H-thymidine assay was performed essentially as described in the examples above with slight modifications due to the fact that the Daudi cells are non-adherent. Thus, approximately 250,000 Daudi cells in IMDM were plated into each well of a 96-well microtiter plate and the antibody-enzyme conjugate added. The reaction mixture was incubated at 4°C for 30 min. Unbound antibody-enzyme conjugate was removed by centrifuging at 500 x g for 5 min and removing the supernatant. The cells were resuspended in IMDM and the washing procedure was repeated three times to remove all unbound conjugate. APO in IMDM was then added for 2 h and washed once as described above. The remainder of the assay was performed as described in the examples above.

H2981 tumor cells = experiment: 3H-thymidine uptake assay on H2981 cells, PVA conjugates with APO; assay type: cell-based; conditions: Homo sapiens; H2981 cells untreated with any conjugate
Protocol: The in vitro cytotoxic effect of the antibody-PVA/ adriamycin prodrug combination of the invention toward H2981 tumor cells was measured using the ^3H-thymidine uptake assay described in Examples 1 and 2 above. Briefly, the H2981 tumor cells were plated into 96-well microtiter plates in IMDM (10,000 cells/well) and were allowed to attached for 18 h at 37°C. The antibody-PVA conjugates, L6-PVA or 1F5-PVA, were then added at a concentration of 10 µg/ml of antibody and the plates were incubated for 30 min at 4°C. The wells were then washed four times with IMDM and APO was added at varying concentrations in IMDM. After two h, the wells were again washed, IMDM was added and the cells were left for 18 h at 37°C. At that point, ^3H-thymidine was added (1 µCi per well) and after 6 h, the plates were frozen at -70°C to detach the cells. After thawing, the cells were harvested onto glass fiber filters. The incorporation of ^3H-thymidine was measured in a Beckman 3801 scintillation counter and compared to cells treated with APO or adriamycin (ADM) alone.

**Q.** `COc1cccc2c1C(=O)c1c(O)c3c(c(O)c1C2=O)C[C@@](O)(C(=O)CO)C[C@@H]3O[C@H]1C[C@H](N)[C@H](O)[C@H](C)O1` [adriamycin, reference compound] was tested. Which “cytotoxicity on Daudi cells” value (Daudi cells) did it give?
**A.** Its value is “significantly more toxic than APO”.

**Q.** What about the pIC50 (H2981 tumor cells) of the same compound?
**A.** Its pIC50 is 7.42.
